Laboratory results from ChEMBL document CHEMBL4513141, “CO-ADD screening of NIH (USA) - Clinical Collection” (2021).
Converted amounts (≈) assume the structure as drawn. Where a name gives a salt, the structure may show the parent alone.

Columns and labels:
Escherichia coli = test: microbe, parasite or virus in culture; details: ATCC 25922, 18 h, ASSAY_TEST Inhibition of Bacterial Growth, detection method Absorption (OD600), MEDIA CAMHB, plate type 384well, NBS, CORNING #3640
Description: Antibacterial activity against Escherichia coli ATCC 25922 (CO-ADD:GN_001); MIC in CAMBH media using NBS plates, by OD(600)

Acinetobacter baumannii = test: microbe, parasite or virus in culture; details: ATCC 19606, 18 h, ASSAY_TEST Inhibition of Bacterial Growth, detection method Absorption (OD600), MEDIA CAMHB, plate type 384well, NBS, CORNING #3640
Description: Antibacterial activity against Acinetobacter baumannii ATCC 19606 (CO-ADD:GN_034); MIC in CAMBH media using NBS plates, by OD600

HEK293 = test: cells; type: functional, Homo sapiens, ATCC CRL1573; details: Homo sapiens, ATCC CRL1573, HEK293; ASSAY_TEST Inhibition of Cell Viability; detection method Resazurin; Fluorescence (ex560/em590); MEDIA DMEM with 10% FBS; plate type 384well; TC; CORNING #3712; time 18 hr
Staphylococcus aureus = test: microbe, parasite or virus in culture; details: ATCC 43300, 18 h, ASSAY_TEST Inhibition of Bacterial Growth, detection method Absorption (OD600), MEDIA CAMHB, plate type 384well, NBS, CORNING #3640
Description: Antibacterial activity against Staphylococcus aureus MRSA ATCC 43300 (CO-ADD:GP_020); MIC in CAMBH media, using NBS plates, by OD(600)

Candida albicans = test: microbe, parasite or virus in culture; details: ATCC 90028, ASSAY_TEST Inhibition of Fungal Growth, detection method Absorption (OD530), plate type 384well, NBS, CORNING #3640
Description: Antifungal activity against Candida albicans ATCC 90028 (CO-ADD:FG_001); MIC in YNB media using NBS plates, by OD630

Klebsiella pneumoniae = test: microbe, parasite or virus in culture; details: ATCC 700603, 18 h, ASSAY_TEST Inhibition of Bacterial Growth, detection method Absorption (OD600), MEDIA CAMHB, plate type 384well, NBS, CORNING #3640
Description: Antibacterial activity against Klebsiella pneumoniae MDR ATCC 70063 (CO-ADD:GN_003); MIC in CAMBH media using NBS plates, by OD(600)

Pseudomonas aeruginosa = test: microbe, parasite or virus in culture; details: ATCC 27853, 18 h, ASSAY_TEST Inhibition of Bacterial Growth, detection method Absorption (OD600), MEDIA CAMHB, plate type 384well, NBS, CORNING #3640
Description: Antibacterial activity against Pseudomonas aeruginosa ATCC 27853 (CO-ADD:GN_042); MIC in CAMBH media using NBS plates, by OD(600)

Description for Cryptococcus neoformans: Antifungal activity against Cryptococcus neoformans H99 ATCC 208821 (CO-ADD:FG_002); MIC in YNB media using NBS plates, by Resazurin OD(600-570)

Row | SMILES | MIC (Escherichia coli) [µM] | MIC (Acinetobacter baumannii) [µM] | CC50 (HEK293) [µM] | MIC (Staphylococcus aureus) [µM] | MIC (Candida albicans) [µM] | MIC (Cryptococcus neoformans) [µM] | MIC (Klebsiella pneumoniae) [µM] | MIC (Pseudomonas aeruginosa) [µM]
1 | CO[C@H]1/C=C/O[C@@]2(C)Oc3c(C)c(O)c4c(c3C2=O)C2=NC3(CCN(CC(C)C)CC3)NC2=C(NC(=O)/C(C)=C\C=C\[C@H](C)[C@H](O)[C@@H](C)[C@@H](O)[C@@H](C)[C@H](OC(C)=O)[C@@H]1C)C4=O [RIFABUTIN] | 5 (≈ 4.24 µg/mL) | 10 (≈ 8.47 µg/mL) | > 10 | ≤ 0.0781 | > 10 | > 10 | > 10 | 0.156 (≈ 0.132 µg/mL)
2 | Oc1cc(Cl)ccc1Oc1ccc(Cl)cc1Cl [TRICLOSAN] | > 10 | > 10 | > 10 | 2.5 (≈ 0.724 µg/mL) | > 10 | > 10 | > 10 | > 10
3 | COc1c(N2CCNC(C)C2)c(F)cc2c(=O)c(C(=O)O)cn(C3CC3)c12 (stereo not drawn) [GATIFLOXACIN] | ≤ 0.0781 | 1.25 (≈ 0.469 µg/mL) | > 10 | 0.312 (≈ 0.117 µg/mL) | > 10 | > 10 | 2.5 (≈ 0.939 µg/mL) | 0.625 (≈ 0.235 µg/mL)
4 | CCC(C)n1ncn(-c2ccc(N3CCN(c4ccc(OCC5COC(Cn6cncn6)(c6ccc(Cl)cc6Cl)O5)cc4)CC3)cc2)c1=O (stereo not drawn) [ITRACONAZOLE] | > 10 | > 10 | > 10 | > 10 | ≤ 0.0781 | 0.156 (≈ 0.11 µg/mL) | > 10 | > 10
5 | CON=C(C(=O)NC1C(=O)N2C(C(=O)O)=C(COC(C)=O)CSC12)c1csc(N)n1 (stereo not drawn) | 0.312 (≈ 0.142 µg/mL) | > 10 | > 10 | > 10 | > 10 | > 10 | > 10 | > 10
6 | CCN1CCN(c2cc3c(cc2F)c(=O)c(C(=O)O)cn3C2CC2)CC1 [ENROFLOXACIN] | ≤ 0.0781 | 5 (≈ 1.8 µg/mL) | > 10 | 0.312 (≈ 0.112 µg/mL) | > 10 | > 10 | 2.5 (≈ 0.899 µg/mL) | 0.312 (≈ 0.112 µg/mL)
7 | O=c1[nH]c(=O)n(C2CC(O)C(CO)O2)cc1F (stereo not drawn) | 10 (≈ 2.46 µg/mL) | > 10 | 2.37 | ≤ 0.0781 | > 10 | > 10 | 5 (≈ 1.23 µg/mL) | > 10
8 | CCc1oc2ccccc2c1C(=O)c1cc(Br)c(O)c(Br)c1 [BENZBROMARONE] | > 10 | > 10 | > 10 | > 10 | > 10 | > 10 | > 10 | > 10
9 | CCN(CC)C(=S)SSC(=S)N(CC)CC | > 10 | > 10 | 5.04 | > 10 | 2.5 (≈ 0.741 µg/mL) | 5 (≈ 1.48 µg/mL) | > 10 | > 10
10 | CCn1cc(C(=O)O)c(=O)c2cc(F)c(N3CCN(C)CC3)cc21 [PEFLOXACIN MESYLATE] | 0.156 | 10 | > 10 | 1.25 | > 10 | > 10 | 5 | 1.25
11 | Cc1onc(-c2c(Cl)cccc2Cl)c1C(=O)N[C@@H]1C(=O)N2[C@@H]1SC(C)(C)[C@@H]2C(=O)O | > 10 | > 10 | > 10 | 0.625 (≈ 0.294 µg/mL) | > 10 | > 10 | > 10 | > 10
12 | Oc1c(Cl)cc(Cl)c(Cl)c1Cc1c(O)c(Cl)cc(Cl)c1Cl [HEXACHLOROPHENE] | > 10 | > 10 | > 10 | 5 (≈ 2.03 µg/mL) | > 10 | > 10 | > 10 | > 10
13 | CCn1cc(C(=O)O)c(=O)c2cc(F)c(N3CCNCC3)cc21 [NORFLOXACIN] | 0.625 (≈ 0.2 µg/mL) | 5 (≈ 1.6 µg/mL) | > 10 | 5 (≈ 1.6 µg/mL) | > 10 | > 10 | 10 (≈ 3.19 µg/mL) | > 10
14 | CC1COc2c(N3CCN(C)CC3)c(F)cc3c(=O)c(C(=O)O)cn1c23 (stereo not drawn) [OFLOXACIN] | ≤ 0.0781 | 5 (≈ 1.81 µg/mL) | > 10 | 1.25 (≈ 0.452 µg/mL) | > 10 | > 10 | 5 (≈ 1.81 µg/mL) | 1.25 (≈ 0.452 µg/mL)
15 | CO[C@@]1(NC(=O)Cc2cccs2)C(=O)N2C(C(=O)O)=C(COC(N)=O)CS[C@@H]21 [CEFOXITIN SODIUM] | 10 | > 10 | > 10 | > 10 | > 10 | > 10 | > 10 | > 10
16 | Clc1ccccc1C(c1ccccc1)(c1ccccc1)n1ccnc1 [CLOTRIMAZOLE] | > 10 | > 10 | > 10 | > 10 | 0.156 (≈ 0.0539 µg/mL) | 1.25 (≈ 0.431 µg/mL) | > 10 | > 10
17 | CN(C)[C@@H]1C(O)=C(C(N)=O)C(=O)[C@@]2(O)C(O)=C3C(=O)c4c(O)cccc4[C@@](C)(O)[C@H]3C[C@@H]12 [TETRACYCLINE] | > 10 | > 10 | > 10 | > 10 | > 10 | > 10 | > 10 | > 10
18 | COC1=C(OC)C(=O)C(CCCCCCCCCCO)=C(C)C1=O [IDEBENONE] | > 10 | > 10 | > 10 | > 10 | > 10 | > 10 | > 10 | > 10
19 | CC1c2cccc(O)c2C(=O)C2=C(O)C3(O)C(O)=C(C(N)=O)C(=O)C(N(C)C)C3C(O)C21 (stereo not drawn) | 1.25 (≈ 0.556 µg/mL) | > 10 | > 10 | 0.625 (≈ 0.278 µg/mL) | > 10 | > 10 | > 10 | 0.312 (≈ 0.139 µg/mL)
20 | CCOC(=O)C1=C(C)NC(C)=C(C(=O)OCC)C1c1ccccc1/C=C/C(=O)OC(C)(C)C [LACIDIPINE] | > 10 | > 10 | > 10 | > 10 | > 10 | > 10 | > 10 | > 10
21 | COc1cccc2c1C(=O)c1c(O)c3c(c(O)c1C2=O)C[C@@](O)(C(=O)CO)C[C@@H]3O[C@H]1C[C@H](N)[C@@H](O)[C@H](C)O1 [EPIRUBICIN HYDROCHLORIDE] | > 10 | > 10 | 1.14 | 10 | > 10 | > 10 | > 10 | > 10
